From PubChem BioAssay (NCI)
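Compound exposure: 48 hours, 5 concentrations, 96-well plates. At the GI50, growth is halved. TGI: concentration producing complete growth inhibition.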

Legend:
Assay in all cases: growth of human tumour cells (NCI), 48 h
A549 NSCLC = system: A549 NSCLC
ACHN renal = system: ACHN renal
HOP-62 NSCLC = system: HOP-62 NSCLC
IGROV1 ovarian = system: IGROV1 ovarian
MALME-3M melanoma = system: MALME-3M melanoma
OVCAR-8 ovarian = system: OVCAR-8 ovarian
SF-539 CNS = system: SF-539 CNS
SK-MEL-2 melanoma = system: SK-MEL-2 melanoma
SR leukemia = system: SR leukemia
EKVX NSCLC = system: EKVX NSCLC

c1cc(CNC23CC4CC(CC(C4)C2)C3)cc(C[N+](Cc2cccc(CNC34CC5CC(CC(C5)C3)C4)c2)(Cc2cccc(CNC34CC5CC(CC(C5)C3)C4)c2)Cc2cccc(CNC34CC5CC(CC(C5)C3)C4)c2)c1 (configuration not stated)
GI50 (A549 NSCLC): 8.91 µM
TGI (A549 NSCLC): 36.4 µM
GI50 (ACHN renal): 3.65 µM
TGI (ACHN renal): 8.92 µM
GI50 (HOP-62 NSCLC): 11.1 µM
TGI (HOP-62 NSCLC): 42.1 µM
GI50 (IGROV1 ovarian): 3.7 µM
TGI (IGROV1 ovarian): 9.8 µM
GI50 (MALME-3M melanoma): 3.51 µM
TGI (MALME-3M melanoma): 7.77 µM
GI50 (OVCAR-8 ovarian): 8.64 µM
TGI (OVCAR-8 ovarian): 35.4 µM
GI50 (SF-539 CNS): 4.23 µM
TGI (SF-539 CNS): 10.3 µM
GI50 (SK-MEL-2 melanoma): 4.44 µM
TGI (SK-MEL-2 melanoma): 13.4 µM
GI50 (SR leukemia): 6.22 µM
TGI (SR leukemia): 209 µM

C[C@@]12CC=C3c4nc(Nc5cccc(O)c5)sc4CC[C@]3(C)[C@H]1CC[C@]1(C)C(=O)CC[C@@H]21
GI50 (A549 NSCLC): 4.6 µM
TGI (A549 NSCLC): > 100 µM
GI50 (ACHN renal): 2.27 µM
TGI (ACHN renal): 5.45 µM
GI50 (EKVX NSCLC): 5.93 µM
TGI (EKVX NSCLC): 83.3 µM
GI50 (HOP-62 NSCLC): 2.75 µM
TGI (HOP-62 NSCLC): 8.12 µM
GI50 (IGROV1 ovarian): 2.23 µM
TGI (IGROV1 ovarian): 6.04 µM
GI50 (OVCAR-8 ovarian): 3.55 µM
TGI (OVCAR-8 ovarian): 26 µM
GI50 (SF-539 CNS): 0.387 µM
TGI (SF-539 CNS): 1.52 µM
GI50 (SK-MEL-2 melanoma): 2.86 µM
TGI (SK-MEL-2 melanoma): 9.99 µM
GI50 (SR leukemia): 1.87 µM
TGI (SR leukemia): > 100 µM

Oc1ccccc1C(Sc1nc2ccccc2s1)Sc1nc2ccccc2s1
TGI (A549 NSCLC): > 100 µM
TGI (ACHN renal): > 100 µM
TGI (EKVX NSCLC): 77.9 µM
TGI (HOP-62 NSCLC): > 100 µM
TGI (IGROV1 ovarian): > 100 µM
TGI (MALME-3M melanoma): > 100 µM
TGI (OVCAR-8 ovarian): > 100 µM
TGI (SK-MEL-2 melanoma): > 100 µM
TGI (SR leukemia): > 100 µM

CC1(C)C(=O)N(CCCCCCN2C(=O)C(C)(C)c3ccccc32)c2ccccc21
TGI (A549 NSCLC): > 100 µM
TGI (ACHN renal): 97 µM
TGI (EKVX NSCLC): > 100 µM
TGI (HOP-62 NSCLC): > 100 µM
TGI (IGROV1 ovarian): > 100 µM
TGI (MALME-3M melanoma): 75.8 µM
TGI (OVCAR-8 ovarian): > 100 µM
TGI (SF-539 CNS): > 100 µM
TGI (SK-MEL-2 melanoma): > 100 µM

O=C1C2C3C=C4c5ccccc5N(c5ccccc5)C4(C2C(=O)N1Cc1ccccc1)C1C(=O)N(Cc2ccccc2)C(=O)C31 (configuration not stated)
TGI (A549 NSCLC): > 100 µM
TGI (ACHN renal): > 100 µM
TGI (MALME-3M melanoma): > 100 µM
TGI (OVCAR-8 ovarian): > 100 µM
TGI (SF-539 CNS): > 100 µM
TGI (SK-MEL-2 melanoma): > 100 µM
TGI (SR leukemia): > 100 µM

NC(N)=N/N=C(\c1nc2ccc([N+](=O)[O-])cc2[nH]c1=O)C(O)c1ccc([N+](=O)[O-])cc1 (configuration not stated)
TGI (A549 NSCLC): > 100 µM
TGI (ACHN renal): > 100 µM
TGI (HOP-62 NSCLC): > 100 µM
TGI (IGROV1 ovarian): > 100 µM
TGI (MALME-3M melanoma): > 100 µM
TGI (OVCAR-8 ovarian): > 100 µM
TGI (SF-539 CNS): > 100 µM
TGI (SR leukemia): > 100 µM

CC(C)(C)c1ccc2c(c1)S(=O)(=O)Nc1ccccc1NS(=O)(=O)c1cc(C(C)(C)C)ccc1OCCOCCOCCO2
TGI (A549 NSCLC): > 100 µM
TGI (ACHN renal): > 100 µM
TGI (EKVX NSCLC): > 100 µM
TGI (HOP-62 NSCLC): > 100 µM
TGI (IGROV1 ovarian): > 100 µM
TGI (MALME-3M melanoma): 97 µM
TGI (OVCAR-8 ovarian): > 100 µM
TGI (SF-539 CNS): > 100 µM
TGI (SK-MEL-2 melanoma): > 100 µM

Clc1ccc(C2=Nn3c(COc4ccccc4Cl)nnc3SC2)c(Cl)c1
GI50 (A549 NSCLC): 23.6 µM
TGI (A549 NSCLC): > 100 µM
GI50 (ACHN renal): 17.3 µM
TGI (ACHN renal): 51.6 µM
GI50 (EKVX NSCLC): 23.7 µM
TGI (EKVX NSCLC): 80.8 µM
GI50 (HOP-62 NSCLC): 24.3 µM
TGI (HOP-62 NSCLC): 65 µM
GI50 (IGROV1 ovarian): 33.6 µM
TGI (IGROV1 ovarian): > 100 µM
GI50 (MALME-3M melanoma): 20.3 µM
TGI (MALME-3M melanoma): 70.6 µM
GI50 (OVCAR-8 ovarian): 29.6 µM
TGI (OVCAR-8 ovarian): > 100 µM
GI50 (SK-MEL-2 melanoma): 25.1 µM
TGI (SK-MEL-2 melanoma): 57.4 µM

Cc1ccc(C(=O)CN(/C=C/C(=O)C(F)(F)F)c2ccc(S(N)(=O)=O)cc2)cc1
GI50 (A549 NSCLC): 63.5 µM
TGI (A549 NSCLC): > 100 µM
GI50 (ACHN renal): > 100 µM
TGI (ACHN renal): > 100 µM
GI50 (EKVX NSCLC): 55.2 µM
TGI (EKVX NSCLC): > 100 µM
GI50 (HOP-62 NSCLC): > 100 µM
TGI (HOP-62 NSCLC): > 100 µM
GI50 (IGROV1 ovarian): > 100 µM
TGI (IGROV1 ovarian): > 100 µM
GI50 (MALME-3M melanoma): > 100 µM
TGI (MALME-3M melanoma): > 100 µM
GI50 (OVCAR-8 ovarian): 61.2 µM
TGI (OVCAR-8 ovarian): > 100 µM
GI50 (SF-539 CNS): > 100 µM
TGI (SF-539 CNS): > 100 µM
GI50 (SK-MEL-2 melanoma): > 100 µM
TGI (SK-MEL-2 melanoma): > 100 µM

Nn1c(=O)n(Cc2ccccc2)n(-c2ccccc2)c1=O
TGI (A549 NSCLC): > 100 µM
TGI (ACHN renal): > 100 µM
TGI (HOP-62 NSCLC): > 100 µM
TGI (IGROV1 ovarian): > 100 µM
TGI (MALME-3M melanoma): > 100 µM
TGI (OVCAR-8 ovarian): > 100 µM
TGI (SF-539 CNS): > 100 µM
TGI (SK-MEL-2 melanoma): > 100 µM
TGI (SR leukemia): > 100 µM

N=C1C(c2nc3ccccc3s2)=C(O)CN1c1cc(C(F)(F)F)ccc1Cl
GI50 (A549 NSCLC): 21.1 µM
TGI (A549 NSCLC): > 100 µM
GI50 (ACHN renal): 21.2 µM
TGI (ACHN renal): > 100 µM
GI50 (EKVX NSCLC): 62.7 µM
TGI (EKVX NSCLC): > 100 µM
GI50 (HOP-62 NSCLC): 18.4 µM
TGI (HOP-62 NSCLC): > 100 µM
GI50 (IGROV1 ovarian): 9.64 µM
TGI (IGROV1 ovarian): > 100 µM
GI50 (OVCAR-8 ovarian): 32.9 µM
TGI (OVCAR-8 ovarian): > 100 µM
GI50 (SF-539 CNS): 10 µM
TGI (SF-539 CNS): 52.9 µM
GI50 (SK-MEL-2 melanoma): 29.8 µM
TGI (SK-MEL-2 melanoma): > 100 µM
GI50 (SR leukemia): 1.81 µM
TGI (SR leukemia): 4.91 µM

CN1c2ccc(Cl)cc2C(=O)NC1c1ccc([N+](=O)[O-])s1 (configuration not stated)
TGI (A549 NSCLC): 92 µM
TGI (ACHN renal): 51.7 µM
TGI (EKVX NSCLC): 57.8 µM
TGI (HOP-62 NSCLC): 59.6 µM
TGI (IGROV1 ovarian): 31.5 µM
TGI (OVCAR-8 ovarian): 38.9 µM
TGI (SF-539 CNS): 37.5 µM
TGI (SK-MEL-2 melanoma): 30.8 µM
TGI (SR leukemia): 35.1 µM

Cc1cccc(NC(=O)/C(=N\NC(C)(C)C)C2NC(=S)NC2=O)c1C (configuration not stated)
TGI (A549 NSCLC): > 100 µM
TGI (ACHN renal): > 100 µM
TGI (EKVX NSCLC): > 100 µM
TGI (HOP-62 NSCLC): > 100 µM
TGI (IGROV1 ovarian): > 100 µM
TGI (MALME-3M melanoma): > 100 µM
TGI (OVCAR-8 ovarian): > 100 µM
TGI (SF-539 CNS): > 100 µM
TGI (SK-MEL-2 melanoma): > 100 µM

COc1ccccc1/C=C1\SC(=S)N(/C=C2\C(=O)Oc3ccccc3C2=O)C1=O
TGI (A549 NSCLC): > 100 µM
TGI (ACHN renal): > 100 µM
TGI (EKVX NSCLC): 60.2 µM
TGI (IGROV1 ovarian): > 100 µM
TGI (MALME-3M melanoma): 64 µM
TGI (OVCAR-8 ovarian): > 100 µM
TGI (SF-539 CNS): 85.3 µM
TGI (SK-MEL-2 melanoma): 59.4 µM

Clc1nc(Cl)c(Cl)c(-c2ccccc2)n1
TGI (A549 NSCLC): 27.9 µM
TGI (ACHN renal): 33.5 µM
TGI (EKVX NSCLC): 30.7 µM
TGI (HOP-62 NSCLC): 18.1 µM
TGI (IGROV1 ovarian): 31.1 µM
TGI (MALME-3M melanoma): 53.7 µM
TGI (OVCAR-8 ovarian): > 100 µM
TGI (SF-539 CNS): 31.5 µM
TGI (SK-MEL-2 melanoma): 51.7 µM

COc1ccc(/C=C/c2ccnc3ccccc23)c(OC)c1
TGI (A549 NSCLC): > 10 µM
TGI (ACHN renal): > 10 µM
TGI (EKVX NSCLC): > 10 µM
TGI (HOP-62 NSCLC): > 10 µM
TGI (IGROV1 ovarian): > 10 µM
TGI (MALME-3M melanoma): > 10 µM
TGI (OVCAR-8 ovarian): > 10 µM
TGI (SF-539 CNS): > 10 µM
TGI (SK-MEL-2 melanoma): > 10 µM

COc1cc(/C=C/c2cc(/C=C/c3ccc(O)c(OC)c3)n(C(=O)Nc3ccc(F)c(Cl)c3)n2)ccc1O
GI50 (A549 NSCLC): 0.387 µM
TGI (A549 NSCLC): 3.47 µM
GI50 (ACHN renal): 0.141 µM
TGI (ACHN renal): 7.49 µM
GI50 (EKVX NSCLC): 1.22 µM
TGI (EKVX NSCLC): 6.98 µM
GI50 (HOP-62 NSCLC): 0.409 µM
TGI (HOP-62 NSCLC): 1.59 µM
GI50 (IGROV1 ovarian): 0.47 µM
TGI (IGROV1 ovarian): 3.59 µM
GI50 (MALME-3M melanoma): 1.05 µM
TGI (MALME-3M melanoma): 2.48 µM
GI50 (OVCAR-8 ovarian): 0.496 µM
TGI (OVCAR-8 ovarian): 3.09 µM
GI50 (SR leukemia): 0.0415 µM

Cc1cc(Cl)ccc1N=C1NC(=O)C(CC(=O)Nc2ccc([N+](=O)[O-])cc2[N+](=O)[O-])S1 (configuration not stated)
TGI (A549 NSCLC): 85.9 µM
TGI (ACHN renal): 71.4 µM
TGI (EKVX NSCLC): > 100 µM
TGI (HOP-62 NSCLC): 85 µM
TGI (IGROV1 ovarian): > 100 µM
TGI (MALME-3M melanoma): 73.2 µM
TGI (OVCAR-8 ovarian): > 100 µM
TGI (SF-539 CNS): 59.1 µM
TGI (SK-MEL-2 melanoma): 46.1 µM
